Reference: patent US20160302412A1, “USES OF SALICYLIC ACID” (UNIVERSITY OF TENNESSEE RESEARCH FOUNDATION, priority 2013, published 2016)

Tested on: snap bean seedling diseases (Pythium spp., Rhizoctonia solani, Macrophomina phaseolina, and Fusarium spp.)
Test: Spring-planted 2013 snap bean field test
Conditions: in vivo

O.O.O=C([O-])c1ccccc1O.O=C([O-])c1ccccc1O.[Ca+2] [calcium salicylate, calcium salicylate dihyrate]
Overall snap bean yield: highest
Seedling emergence 15 days after planting (May 8): greatest
healthy plant stands: highest
